From the supplement of paper PMC11061612

Key:
[1] = tested on: KYSE-270 (Esophageal Squamous Cell Carcinoma); assay: combination Emax (second highest fraction inhibited in the dose matrix, 72 h); higher = more inhibition; extreme values may be limits of the assay
Method in brief: (§1)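 Cell lines grown in DMEM/F12 or RPMI with 10% FBS were plated in 1536-well plates and held 24 hours at 37°C, 5% CO2 before 72 hours of exposure to two-drug dose matrices, with DMSO typically at 0.2%. CellTiter-Glo 2.0 luminescence gave viability, which was converted to inhibition. Vehicle wells were set to 0 and blank wells to 1. Combination Emax is the second-highest inhibition in the matrix, and Bliss excess is the observed combination effect minus the expected EA + EB − EA·EB, where EA and EB are the single-agent effects.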

[2] = tested on: SK-GT-4 (Esophageal Adenocarcinoma); assay: as above
Method in brief: as §1

[3] = tested on: NCI-H526 (Small Cell Lung Carcinoma); assay: as above
Method in brief: as §1

[4] = tested on: KU812 (Chronic Myelogenous Leukemia); assay: as above
Method in brief: as §1

[5] = tested on: VMRC-RCZ (Kidney Carcinoma); assay: as above
Method in brief: as §1

SJSA-1 (Osteosarcoma) [6] = assay: as above
Method in brief: as §1

[7] = tested on: MN-60 (B-Lymphoblastic Leukemia); assay: as above
Method in brief: as §1

[8] = tested on: MOG-G-CCM (Low Grade Glioma); assay: as above
Method in brief: as §1

[9] = tested on: COR-L279 (Small Cell Lung Carcinoma); assay: as above
Method in brief: as §1

[10] = tested on: NCI-H520 (Squamous Cell Lung Carcinoma); assay: as above
Method in brief: as §1

[11] = tested on: DMS-114 (Small Cell Lung Carcinoma); assay: as above
Method in brief: as §1

[12] = tested on: NCI-H3122 (Lung Adenocarcinoma); assay: as above
Method in brief: as §1

NCI-H2731 (Mesothelioma) [13] = assay: as above
Method in brief: as §1

[14] = tested on: T-T (Esophageal Squamous Cell Carcinoma); assay: as above
Method in brief: as §1

[15] = tested on: NCI-H929 (Plasma Cell Myeloma); assay: as above
Method in brief: as §1

M059J (Glioblastoma) [16] = assay: as above
Method in brief: as §1

[17] = tested on: ST486 (Burkitt's Lymphoma); assay: as above
Method in brief: as §1

[18] = tested on: NCCIT (Other Solid Carcinomas); assay: as above
Method in brief: as §1

[19] = tested on: CW-2 (Colorectal Carcinoma); assay: as above
Method in brief: as §1

[20] = tested on: OCI-AML3 (Acute Myeloid Leukemia); assay: as above
Method in brief: as §1

[21] = tested on: KP-3 (Pancreatic Carcinoma); assay: as above
Method in brief: as §1

[22] = tested on: KYSE-270 (Esophageal Squamous Cell Carcinoma); assay: Bliss excess, mean over the matrix (fraction); higher = more synergy
Method in brief: as §1

[23] = tested on: SK-GT-4 (Esophageal Adenocarcinoma); assay: as above
Method in brief: as §1

[24] = tested on: NCI-H526 (Small Cell Lung Carcinoma); assay: as above
Method in brief: as §1

[25] = tested on: KU812 (Chronic Myelogenous Leukemia); assay: as above
Method in brief: as §1

[26] = tested on: VMRC-RCZ (Kidney Carcinoma); assay: as above
Method in brief: as §1

SJSA-1 (Osteosarcoma) [27] = assay: as above
Method in brief: as §1

[28] = tested on: MN-60 (B-Lymphoblastic Leukemia); assay: as above
Method in brief: as §1

[29] = tested on: MOG-G-CCM (Low Grade Glioma); assay: as above
Method in brief: as §1

[30] = tested on: COR-L279 (Small Cell Lung Carcinoma); assay: as above
Method in brief: as §1

[31] = tested on: NCI-H520 (Squamous Cell Lung Carcinoma); assay: as above
Method in brief: as §1

[32] = tested on: DMS-114 (Small Cell Lung Carcinoma); assay: as above
Method in brief: as §1

[33] = tested on: NCI-H3122 (Lung Adenocarcinoma); assay: as above
Method in brief: as §1

NCI-H2731 (Mesothelioma) [34] = assay: as above
Method in brief: as §1

[35] = tested on: T-T (Esophageal Squamous Cell Carcinoma); assay: as above
Method in brief: as §1

[36] = tested on: NCI-H929 (Plasma Cell Myeloma); assay: as above
Method in brief: as §1

M059J (Glioblastoma) [37] = assay: as above
Method in brief: as §1

[38] = tested on: ST486 (Burkitt's Lymphoma); assay: as above
Method in brief: as §1

[39] = tested on: NCCIT (Other Solid Carcinomas); assay: as above
Method in brief: as §1

[40] = tested on: CW-2 (Colorectal Carcinoma); assay: as above
Method in brief: as §1

[41] = tested on: OCI-AML3 (Acute Myeloid Leukemia); assay: as above
Method in brief: as §1

[42] = tested on: KP-3 (Pancreatic Carcinoma); assay: as above
Method in brief: as §1
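Throughout, for Bliss excess, mean over the matrix: after 72 h of two-drug dosing.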

`CC1(C)CCC(CN2CCN(c3ccc(C(=O)NS(=O)(=O)c4ccc(NCC5CCOCC5)c([N+](=O)[O-])c4)c(Oc4cnc5[nH]ccc5c4)c3)CC2)=C(c2ccc(Cl)cc2)C1` [Venetoclax] + CS(=O)(=O)CCNCc1ccc(-c2ccc3ncnc(Nc4ccc(OCc5cccc(F)c5)c(Cl)c4)c3c2)o1 [Lapatinib] (first compound max 1 µM, 7x7, partner max 10 µM) was tested, and the “combination Emax” value [1] was 0.477, the “combination Emax” value [2] was 0.341 and the “combination Emax” value [3] was 0.727. For the same molecule, the “combination Emax” value [4] was 0.831, the “combination Emax” value [5] was 0.155 and the “combination Emax” value (SJSA-1 (Osteosarcoma) [6]) was 0.219. For the same molecule, the “combination Emax” value [7] was 0.111, the “combination Emax” value [8] was 0.166 and the “combination Emax” value [9] was 0.911. The “combination Emax” value [10] was 0.296, the “combination Emax” value [11] was 0.226 and the “combination Emax” value [12] was 0.232. For the same molecule, the “combination Emax” value (NCI-H2731 (Mesothelioma) [13]) was 0.285, the “combination Emax” value [14] was 0.794 and the “combination Emax” value [15] was 0.207. The “combination Emax” value (M059J (Glioblastoma) [16]) was 0.365, the “combination Emax” value [17] was 0.524 and the “combination Emax” value [18] was 0.209. The “combination Emax” value [19] was 0.379, the “combination Emax” value [20] was 0.397 and the “combination Emax” value [21] was 0.165. For the same molecule, the Bliss excess [22] was -0.0175, the Bliss excess [23] was -0.0436 and the Bliss excess [24] was 0.105. For the same molecule, the Bliss excess [25] was 0.0282, the Bliss excess [26] was -0.047 and the Bliss excess (SJSA-1 (Osteosarcoma) [27]) was -0.002. The Bliss excess [28] was -0.0502, the Bliss excess [29] was -0.0568 and the Bliss excess [30] was -0.0185. It also gave a Bliss excess [31] of -0.0169, a Bliss excess [32] of -0.0443 and a Bliss excess [33] of -0.0229. It also gave a Bliss excess (NCI-H2731 (Mesothelioma) [34]) of -0.0257, a Bliss excess [35] of -0.0066 and a Bliss excess [36] of -0.0098. It also gave a Bliss excess (M059J (Glioblastoma) [37]) of -0.0225, a Bliss excess [38] of 0.0224 and a Bliss excess [39] of -0.024. The Bliss excess [40] was -0.0116, the Bliss excess [41] was 0.01 and the Bliss excess [42] was -0.0487.

For `Cc1c2c(nn1C)CSCc1cc(n(C)n1)CSc1cc(c3ccccc3c1)OCCCc1c(C(=O)O)n(C)c3c-2c(Cl)ccc13` [AZD5991] + CC(=O)O[C@H]1C(=O)[C@@]2(C)[C@H]([C@H](OC(=O)c3ccccc3)[C@]3(O)C[C@H](OC(=O)[C@H](O)[C@@H](NC(=O)c4ccccc4)c4ccccc4)C(C)=C1C3(C)C)[C@]1(OC(C)=O)CO[C@@H]1C[C@@H]2O [Paclitaxel] (first compound max 1 µM, 7x7, partner max 3 µM), the “combination Emax” value [1] was 0.962, the “combination Emax” value [2] was 0.454 and the “combination Emax” value [3] was 1. The “combination Emax” value [4] was 0.918, the “combination Emax” value [5] was 0.358 and the “combination Emax” value (SJSA-1 (Osteosarcoma) [6]) was 0.725. The “combination Emax” value [7] was 0.539, the “combination Emax” value [8] was 0.936 and the “combination Emax” value [9] was 0.997. The “combination Emax” value [10] was 0.769, the “combination Emax” value [11] was 0.944 and the “combination Emax” value [12] was 0.965. For the same molecule, the “combination Emax” value (NCI-H2731 (Mesothelioma) [13]) was 0.397, the “combination Emax” value [14] was 0.989 and the “combination Emax” value [15] was 1. For the same molecule, the “combination Emax” value (M059J (Glioblastoma) [16]) was 0.865, the “combination Emax” value [17] was 0.994 and the “combination Emax” value [18] was 0.984. For the same molecule, the “combination Emax” value [19] was 0.497, the “combination Emax” value [20] was 1 and the “combination Emax” value [21] was 0.365. It also gave a Bliss excess [22] of -0.0116, a Bliss excess [23] of -0.0197 and a Bliss excess [24] of 0.0061. The Bliss excess [25] was -0.108, the Bliss excess [26] was -0.0234 and the Bliss excess (SJSA-1 (Osteosarcoma) [27]) was -0.0168. The Bliss excess [28] was -0.0293, the Bliss excess [29] was 0.0341 and the Bliss excess [30] was 0.0035. The Bliss excess [31] was -0.0478, the Bliss excess [32] was 0.0975 and the Bliss excess [33] was -0.0003. It also gave a Bliss excess (NCI-H2731 (Mesothelioma) [34]) of 0.0237, a Bliss excess [35] of -0.0016 and a Bliss excess [36] of -0.0219. The Bliss excess (M059J (Glioblastoma) [37]) was -0.0193, the Bliss excess [38] was -0.0046 and the Bliss excess [39] was 0.0449. For the same molecule, the Bliss excess [40] was -0.0199, the Bliss excess [41] was 0.0141 and the Bliss excess [42] was -0.0622.

For `C[C@@H]1COCCN1c1cc(C2([S@](C)(=N)=O)CC2)nc(-c2ccnc3[nH]ccc23)n1` [AZD6738] + C1CC(C1)(C(=O)[O-])C(=O)[O-].N.N.[Pt+2] [Carboplatin] (first compound max 10 µM, 7x7, partner max 10 µM), the “combination Emax” value [1] was 0.779, the “combination Emax” value [2] was 0.463 and the “combination Emax” value [3] was 0.564. For the same molecule, the “combination Emax” value [4] was 0.817, the “combination Emax” value [5] was 0.392 and the “combination Emax” value (SJSA-1 (Osteosarcoma) [6]) was 0.477. For the same molecule, the “combination Emax” value [7] was 0.638, the “combination Emax” value [8] was 0.536 and the “combination Emax” value [9] was 0.635. For the same molecule, the “combination Emax” value [10] was 0.674, the “combination Emax” value [11] was 0.4 and the “combination Emax” value [12] was 0.674. The “combination Emax” value (NCI-H2731 (Mesothelioma) [13]) was 0.399, the “combination Emax” value [14] was 0.26 and the “combination Emax” value [15] was 0.801. The “combination Emax” value (M059J (Glioblastoma) [16]) was 0.502, the “combination Emax” value [17] was 0.865 and the “combination Emax” value [18] was 0.531. The “combination Emax” value [19] was 0.537, the “combination Emax” value [20] was 0.854 and the “combination Emax” value [21] was 0.264. The Bliss excess [22] was 0.0445, the Bliss excess [23] was -0.0516 and the Bliss excess [24] was -0.0076. It also gave a Bliss excess [25] of -0.0691, a Bliss excess [26] of -0.0249 and a Bliss excess (SJSA-1 (Osteosarcoma) [27]) of -0.0152. For the same molecule, the Bliss excess [28] was -0.119, the Bliss excess [29] was -0.0204 and the Bliss excess [30] was -0.0178. It also gave a Bliss excess [31] of -0.0017, a Bliss excess [32] of -0.095 and a Bliss excess [33] of -0.0999. The Bliss excess (NCI-H2731 (Mesothelioma) [34]) was -0.0109, the Bliss excess [35] was -0.0661 and the Bliss excess [36] was -0.0536. It also gave a Bliss excess (M059J (Glioblastoma) [37]) of -0.0647, a Bliss excess [38] of -0.0501 and a Bliss excess [39] of -0.0274. It also gave a Bliss excess [40] of -0.0212, a Bliss excess [41] of -0.0326 and a Bliss excess [42] of -0.0087.
